One experiment relates to NIH3T3 cells. Put plainly: Proliferation of skin cells, MTT (change in cell survival rate). The format is cell-based, mouse. Particulars: 50 μM or 100 μM peptide, serum-free media, 72 hours, MTT absorbance 540 nm, FIG. 1. The protocol: In this example, the aim was to confirm the effect of a peptide according to an example on proliferation of skin cells, by evaluating changes in survival rate of NIH3T3 cells, which are mouse fibroblasts.
Specifically, NIH3T3 cells were seeded in a […] at a density of 1×10^4 cells/well and cultured for 24 hours. Next, the cells were washed once with serum-free DMEM media, and 50 μM or 100 μM of a peptide consisting of an amino acid sequence of SEQ ID NO: 1 was dispensed into 200 μL of the serum-free media, and cultured in a CO2 incubator at 37° C. for 72 hours. Next, the culture was washed twice with PBS, and MTT solution was dispensed into each well at a concentration of 0.5 mg/ml. Next, it was shaded from light and cultured in a CO2 incubator at 37° C. for 4 hours, and the absorbance at 540 nm was measured using a microplate reader (Molecular Devices, USA).

In a further experiment the test system is collagen type 1 (CoI1a1). The experiment can be described thus: Expression of extracellular matrix component by RT-PCR in NIH3T3 cells. The format is cell-based, mouse. The settings on record: 10 μM, 50 μM or 1000 μM peptide, 24 hours, FIG. 2, FIG. 3A. Here is the method:
(§1) In this example, the aim was to confirm the effect of the peptide according to an example on improving endogenous skin aging, including improvement of wrinkles and enhancement of elasticity, etc., by evaluating the expression levels of collagen type 1 (CoI1a1), fibronectin, elastin, and hyaluronic acid, which are known components of the dermis.
(§2) Specifically, NIH3T3 cells were seeded in a 6-well plate at a density of 3×10^5 cells/well and cultured for 24 hours. Next, the cells were washed once with serum-free DMEM media, and 10 μM, 50 μM or 1000 μM of a peptide consisting of an amino acid sequence of SEQ ID NO: 1 was dispensed into 1 mL of the serum-free media, and cultured in a CO2 incubator at 37° C. for 24 hours. Next, the culture was washed twice with PBS, and RNA was isolated from the culture using easy blue (iNtRON, Cat. No.: 17061, Korea). Next, using an RT kit (Enzynomics, Cat. NO.: RT200, Korea), the isolated RNA was reverse transcribed to synthesize the respective cDNA. Next, using the synthesized 1 μg cDNA, primers for CoI1a1, fibronectin, or elastin, and a PCR kit (Enzynomics, Cat. No.: P581T, Korea), polymerase chain reaction (PCR) was performed. Meanwhile, in this example, an untreated group was used as a control group, and a group to which IGF was added was used as a positive control group, the nucleotide sequences of the primers used in this example are shown in Table 2 below.

The subject of a further experiment is elastin. The description is as above. Format: cell-based, mouse. The settings on record: 10 μM, 50 μM or 1000 μM peptide, 24 hours, FIG. 2, FIG. 3C. Here is the method: as §1, §2
The test system of the next experiment is fibronectin. Described as above. Format: cell-based, mouse. The settings on record: 10 μM, 50 μM or 1000 μM peptide, 24 hours, FIG. 2, FIG. 3B. Here is the method: as §1, §2
The next experiment has as its system aquaporin-3 (AQP3). The experiment can be described thus: Expression of skin barrier factor by RT-PCR in HaCaT cells. The format is cell-based. The settings on record: 10 μM, 50 μM or 1000 μM peptide, 24 hours, FIG. 4, FIG. 5B. The protocol: (§3) In this example, the aim was to confirm the effect of the peptides according to an example on strengthening the skin barrier, by evaluating the expression levels of sirtuin-1 (SIRT-1) or aquaporin-3 (AQP3).
(§4) Specifically, HaCaT cells were seeded in a 6-well plate at a density of 3×10^5 cells/well and cultured for 24 hours. Next, the cells were washed once with serum-free DMEM media, and 10 μM, 50 μM or 1000 μM of the peptide consisting of the amino acid sequence of SEQ ID NO: 1 was dispensed into 1 mL of the serum-free media, and cultured in a CO2 incubator at 37° C. for 24 hours. Next, the culture was washed twice with PBS, and RNA was isolated from the culture using easy blue (iNtRON, Cat. No.: 17061, Korea). Next, using an RT kit (Enzynomics, Cat. NO.: RT200, Korea), the isolated RNA was reverse transcribed to synthesize the respective cDNA. Next, using the synthesized 1 μg cDNA, primers for SIRT-1 or AQP3, and a PCR kit (Enzynomics, Cat. No.: P581T, Korea), polymerase chain reaction (PCR) was performed. Meanwhile, in this example, an untreated group was used as a control group, and a group to which EGF was added was used as a positive control group, the nucleotide sequences of the primers used in this example are shown in Table 3 below.

A further experiment deals with sirtuin-1 (SIRT-1). Described as above. The format is cell-based. The settings on record: 10 μM, 50 μM or 1000 μM peptide, 24 hours, FIG. 4, FIG. 5A. Here is the method:
as §3, §4

For a further experiment, the system named is HaCaT cells. Put plainly: Reactive oxygen species increased by ultraviolet irradiation, DCFH-DA flow cytometry. Particulars: 50 μM or 1000 μM peptide, 15 mJ/cm^2 ultraviolet rays, 24 hours, FACS, FIG. 6. Format: cell-based. Here is the method:
In this example, the aim was to confirm the effect of the peptide according to an embodiment on the antioxidant effect in damaged skin, by evaluating the change in the level of reactive oxygen species in skin cells increased by ultraviolet irradiation.
Specifically, HaCaT cells were seeded in a 6-well plate at a density of 5×10^5 cells/well and cultured for 24 hours. Next, the cells were washed once with serum-free DMEM media, and 50 μM or 1000 μM of a peptide consisting of an amino acid sequence of SEQ ID NO: 1 was dispensed into 1 mL of the serum-free media, and cultured in a CO2 incubator at 37° C. for […]. Next, the above culture was transferred to an e-tube, mixed with 1 ml of PBS, and dispensed into a well plate. Next, using a UV irradiator (VILBER LOURMAT, Cat No.: 3102-BSU, France), 15 mJ/cm^2 ultraviolet rays were irradiated to HaCaT cells. Next, the PBS in the well plate was removed, 900 μL of the culture medium in which the peptides were dispensed was added, and the plate was cultured in a CO2 incubator at 37° C. for 24 hours. Next, the culture was treated with DCFH-DA (2′,7′-dichlorofluorescin diacetate), wrapped in foil, and cultured in a CO2 incubator at 37° C. for 30 minutes. […] After washing the centrifuged cells with PBS, fluorescence values were measured through flow cytometry (FACS, BD, USA). […]
Background: Flow cytometry measures light scatter and fluorescence of single cells or particles in a stream.

This is an account of results in patent US20260200977A1, “PEPTIDE HAVING ACTIVITY OF IMPROVING STATE OF SKIN, AND USE THEREOF” (CAREGEN CO., LTD., priority 2022, published 2026).

On to TNRTEVEG [SEQ ID NO: 1], for which the proliferation of fibroblasts result with NIH3T3 cells was “promoted”. Also, in the experiment on collagen type 1 (CoI1a1), the “expression of CoI1a1” value was “increased”. Besides, the expression of elastin result in the experiment with elastin was “increased”. Moreover, in the experiment on fibronectin, the expression of fibronectin result is given as “increased”. Also, the “expression of AQP3” value in the experiment on aquaporin-3 (AQP3) is given as “increased”. Besides, in the experiment with sirtuin-1 (SIRT-1), the “expression of SIRT-1” value is “increased”. For the same sequence, the “level of reactive oxygen species in keratinocytes increased by ultraviolet irradiation” value with HaCaT cells is “reduced”.
